Earlier results, collected in patent publication US20230255250A1, “COMPOSITION FOR NUTRITIONAL SUPPLEMENTATION THAT PREVENTS DAMAGE CAUSED BY OXIDATIVE STRESS, HAVING AS PRINCIPLES XANTHOPHYLLS FROM MICROALGAE” (priority 2022, published 2023).

Assays:
[1] = water at room temperature
[2] = test system: T lymphocytes
[3] = test system: dendritic cells
[4] = doses less than 500 mg/kg intravenously

Substance: 2-Hydroxylpropyl-beta-cyclodextrin [HP-β-CD]
- solubility in water [1]: greater than 500 mg/mL
- proliferation and activation of T lymphocytes [2]: induces proliferation and activation
- regulation of molecules such as MHC proteins, and of PD-L1/L2 ([3]; HP-β-CD stimulated dendritic cells): remarkable regulation
- production of IL-6 ([3]; treated with HP-β-CD): increased
- production of IL-10 ([3]; treated with HP-β-CD): increased
- production of TNF-α ([3]; treated with HP-β-CD): increased
- toxicity [4]: not toxic
